According to the NIST ThermoML archive (doi:10.1016/j.jct.2010.08.019):
Numbers after ± are expanded uncertainties.

Experiment: xn = mol fraction of the nth substance listed
Conditions: for surface tension liquid-gas: Wilhelmy-plate method; for viscosity / mass density: 101 kPa, Liquid; for viscosity: Falling or rolling sphere viscometry; for mass density: Vibrating tube method

CC(C)CC(C)(C)C [2,2,4-trimethylpentane] + CC(C)O
surface tension liquid-gas (293.15 K, x2 = 0): 18.8 ± 0.4 mN/m | surface tension liquid-gas (293.15 K, x2 = 0.1006): 18.8 ± 0.4 mN/m | surface tension liquid-gas (293.15 K, x2 = 0.2003): 18.9 ± 0.4 mN/m | surface tension liquid-gas (293.15 K, x2 = 0.3003): 19 ± 0.4 mN/m | surface tension liquid-gas (293.15 K, x2 = 0.4004): 19 ± 0.4 mN/m | surface tension liquid-gas (293.15 K, x2 = 0.5001): 19.2 ± 0.4 mN/m | surface tension liquid-gas (293.15 K, x2 = 0.5998): 19.3 ± 0.4 mN/m | surface tension liquid-gas (293.15 K, x2 = 0.7002): 19.6 ± 0.4 mN/m | surface tension liquid-gas (293.15 K, x2 = 0.7999): 20 ± 0.4 mN/m | surface tension liquid-gas (293.15 K, x2 = 0.8999): 20.6 ± 0.4 mN/m | viscosity (293.15 K, x2 = 0): 0.503 ± 0.009 mPa·s | viscosity (293.15 K, x2 = 0.0501): 0.502 ± 0.009 mPa·s | viscosity (293.15 K, x2 = 0.1006): 0.509 ± 0.009 mPa·s | viscosity (293.15 K, x2 = 0.1512): 0.517 ± 0.009 mPa·s | viscosity (293.15 K, x2 = 0.2003): 0.53 ± 0.009 mPa·s | viscosity (293.15 K, x2 = 0.2501): 0.543 ± 0.009 mPa·s | viscosity (293.15 K, x2 = 0.3003): 0.563 ± 0.009 mPa·s | viscosity (293.15 K, x2 = 0.3502): 0.593 ± 0.009 mPa·s | viscosity (293.15 K, x2 = 0.4004): 0.628 ± 0.009 mPa·s | viscosity (293.15 K, x2 = 0.4502): 0.662 ± 0.01 mPa·s | viscosity (293.15 K, x2 = 0.5001): 0.699 ± 0.01 mPa·s | viscosity (293.15 K, x2 = 0.55): 0.755 ± 0.01 mPa·s | viscosity (293.15 K, x2 = 0.5998): 0.82 ± 0.01 mPa·s | viscosity (293.15 K, x2 = 0.6502): 0.906 ± 0.011 mPa·s | viscosity (293.15 K, x2 = 0.7002): 1.004 ± 0.011 mPa·s | viscosity (293.15 K, x2 = 0.7499): 1.12 ± 0.012 mPa·s | viscosity (293.15 K, x2 = 0.7999): 1.264 ± 0.013 mPa·s | viscosity (293.15 K, x2 = 0.85): 1.439 ± 0.014 mPa·s | viscosity (293.15 K, x2 = 0.8999): 1.666 ± 0.015 mPa·s | viscosity (293.15 K, x2 = 0.95): 1.96 ± 0.018 mPa·s | mass density (293.15 K, x2 = 0): 691.98 ± 0.18 kg/m3 | mass density (293.15 K, x2 = 0.0501): 693.38 ± 0.18 kg/m3 | mass density (293.15 K, x2 = 0.1006): 695.3 ± 0.18 kg/m3 | mass density (293.15 K, x2 = 0.1512): 697.45 ± 0.18 kg/m3 | mass density (293.15 K, x2 = 0.2003): 699.71 ± 0.18 kg/m3 | mass density (293.15 K, x2 = 0.2501): 702.18 ± 0.18 kg/m3 | mass density (293.15 K, x2 = 0.3003): 704.91 ± 0.17 kg/m3 | mass density (293.15 K, x2 = 0.3502): 707.91 ± 0.17 kg/m3 | mass density (293.15 K, x2 = 0.4004): 711.2 ± 0.17 kg/m3 | mass density (293.15 K, x2 = 0.4502): 714.74 ± 0.17 kg/m3 | mass density (293.15 K, x2 = 0.5001): 718.61 ± 0.17 kg/m3 | mass density (293.15 K, x2 = 0.55): 722.8 ± 0.17 kg/m3 | mass density (293.15 K, x2 = 0.5998): 727.34 ± 0.17 kg/m3 | mass density (293.15 K, x2 = 0.6502): 732.45 ± 0.17 kg/m3 | mass density (293.15 K, x2 = 0.7002): 737.93 ± 0.17 kg/m3 | mass density (293.15 K, x2 = 0.7499): 743.9 ± 0.16 kg/m3 | mass density (293.15 K, x2 = 0.7999): 750.57 ± 0.16 kg/m3 | mass density (293.15 K, x2 = 0.85): 757.91 ± 0.16 kg/m3 | mass density (293.15 K, x2 = 0.8999): 766.04 ± 0.16 kg/m3 | mass density (293.15 K, x2 = 0.95): 775.2 ± 0.16 kg/m3 | surface tension liquid-gas (303.15 K, x2 = 0): 17.9 ± 0.4 mN/m | surface tension liquid-gas (303.15 K, x2 = 0.1): 17.9 ± 0.4 mN/m | surface tension liquid-gas (303.15 K, x2 = 0.2004): 17.9 ± 0.4 mN/m | surface tension liquid-gas (303.15 K, x2 = 0.3): 18 ± 0.4 mN/m | surface tension liquid-gas (303.15 K, x2 = 0.4008): 18 ± 0.4 mN/m | surface tension liquid-gas (303.15 K, x2 = 0.5): 18.1 ± 0.4 mN/m | surface tension liquid-gas (303.15 K, x2 = 0.6001): 18.3 ± 0.4 mN/m | surface tension liquid-gas (303.15 K, x2 = 0.7001): 18.6 ± 0.4 mN/m | surface tension liquid-gas (303.15 K, x2 = 0.7989): 19 ± 0.4 mN/m | surface tension liquid-gas (303.15 K, x2 = 0.8997): 19.6 ± 0.4 mN/m | viscosity (303.15 K, x2 = 0): 0.447 ± 0.009 mPa·s | viscosity (303.15 K, x2 = 0.05): 0.444 ± 0.009 mPa·s | viscosity (303.15 K, x2 = 0.1): 0.45 ± 0.009 mPa·s | viscosity (303.15 K, x2 = 0.1499): 0.457 ± 0.009 mPa·s | viscosity (303.15 K, x2 = 0.2004): 0.464 ± 0.009 mPa·s | viscosity (303.15 K, x2 = 0.2497): 0.474 ± 0.009 mPa·s | viscosity (303.15 K, x2 = 0.3): 0.491 ± 0.009 mPa·s | viscosity (303.15 K, x2 = 0.3499): 0.508 ± 0.009 mPa·s | viscosity (303.15 K, x2 = 0.4008): 0.532 ± 0.009 mPa·s | viscosity (303.15 K, x2 = 0.4503): 0.558 ± 0.009 mPa·s | viscosity (303.15 K, x2 = 0.5): 0.589 ± 0.009 mPa·s | viscosity (303.15 K, x2 = 0.5498): 0.633 ± 0.009 mPa·s | viscosity (303.15 K, x2 = 0.6001): 0.682 ± 0.01 mPa·s | viscosity (303.15 K, x2 = 0.65): 0.745 ± 0.01 mPa·s | viscosity (303.15 K, x2 = 0.7001): 0.814 ± 0.01 mPa·s | viscosity (303.15 K, x2 = 0.7495): 0.899 ± 0.011 mPa·s | viscosity (303.15 K, x2 = 0.7989): 0.995 ± 0.011 mPa·s | viscosity (303.15 K, x2 = 0.8499): 1.158 ± 0.012 mPa·s | viscosity (303.15 K, x2 = 0.8997): 1.307 ± 0.013 mPa·s | viscosity (303.15 K, x2 = 0.95): 1.485 ± 0.014 mPa·s | mass density (303.15 K, x2 = 0): 683.61 ± 0.18 kg/m3 | mass density (303.15 K, x2 = 0.05): 684.93 ± 0.18 kg/m3 | mass density (303.15 K, x2 = 0.1): 686.65 ± 0.18 kg/m3 | mass density (303.15 K, x2 = 0.1499): 688.68 ± 0.18 kg/m3 | mass density (303.15 K, x2 = 0.2004): 690.94 ± 0.18 kg/m3 | mass density (303.15 K, x2 = 0.2497): 693.36 ± 0.18 kg/m3 | mass density (303.15 K, x2 = 0.3): 696.11 ± 0.18 kg/m3 | mass density (303.15 K, x2 = 0.3499): 699.03 ± 0.18 kg/m3 | mass density (303.15 K, x2 = 0.4008): 702.3 ± 0.18 kg/m3 | mass density (303.15 K, x2 = 0.4503): 705.79 ± 0.17 kg/m3 | mass density (303.15 K, x2 = 0.5): 709.61 ± 0.17 kg/m3 | mass density (303.15 K, x2 = 0.5498): 713.82 ± 0.17 kg/m3 | mass density (303.15 K, x2 = 0.6001): 718.44 ± 0.17 kg/m3 | mass density (303.15 K, x2 = 0.65): 723.45 ± 0.17 kg/m3 | mass density (303.15 K, x2 = 0.7001): 728.94 ± 0.17 kg/m3 | mass density (303.15 K, x2 = 0.7495): 734.92 ± 0.17 kg/m3 | mass density (303.15 K, x2 = 0.7989): 741.51 ± 0.17 kg/m3 | mass density (303.15 K, x2 = 0.8499): 748.97 ± 0.16 kg/m3 | mass density (303.15 K, x2 = 0.8997): 757.15 ± 0.16 kg/m3 | mass density (303.15 K, x2 = 0.95): 766.32 ± 0.16 kg/m3
